{"source": "patent US20170306409A1", "about": "“CANCER PATIENT SELECTION FOR ADMINISTRATION OF WNT SIGNALING INHIBITORS USING RNF43 MUTATION STATUS” (NOVARTIS AG, priority 2012, published 2017)", "type_in_all_cases": "cell-based, human", "key": {"[1]": {"system": "Axin2, QGP-1", "assay": "Axin2 qPCR assay (pathway inhibition)", "protocol": "(§1) For reverse transcription and quantitative PCR (qPCR), total RNA was extracted from cells or tumors using the RNeasy Plus Mini Kit (Qiagen). 1 μg of RNA were reverse transcribed with Taqman Reverse Transcription Reagents (Applied Biosystems) according to the manufacturer's instruction. Quantitative PCR was performed in 12 μl reactions consisting of 0.6 μl of 20× Taqman probe and PCR primer mix, 6 μl 2× Taqman FAST Advanced Master Mix (Applied Biosystems), and 5.4 μl diluted cDNA template. The thermocycling conditions utilized were 20 seconds at 95° C., followed by 40 cycles of 1 second at 95° C. and 20 seconds at 60° C. All experiments were performed in quadruplicates. Gene expression analysis was performed using the comparative ΔΔCT method and normalized with the housekeeping gene GUSB or 18S. The Taqman probes were purchased from Applied Biosystems."}, "[2]": {"system": "Axin2, L3.3", "assay": "Axin2 qPCR assay (pathway inhibition)", "protocol": "as §1"}, "[3]": {"system": "Axin2, T3M4", "assay": "Axin2 qPCR assay (pathway inhibition)", "protocol": "as §1"}, "[4]": {"system": "Axin2, SW1990", "assay": "Axin2 qPCR assay (pathway inhibition)", "protocol": "as §1"}, "[5]": {"system": "Axin2, SUIT-2", "assay": "Axin2 qPCR assay (pathway inhibition)", "protocol": "as §1"}, "[6]": {"system": "Axin2, BxPC3", "assay": "Axin2 qPCR assay (pathway inhibition)", "protocol": "as §1"}, "[7]": {"system": "Axin2, PSN-1", "assay": "Axin2 qPCR assay (pathway inhibition)", "protocol": "as §1"}, "[8]": {"system": "Axin2, HPAFII", "assay": "Axin2 qPCR assay (pathway inhibition)", "protocol": "as §1"}, "[9]": {"system": "Axin2, CFPAC-1", "assay": "Axin2 qPCR assay (pathway inhibition)", "protocol": "as §1"}, "[10]": {"system": "Axin2, Panc03.27", "assay": "Axin2 qPCR assay (pathway inhibition)", "protocol": "as §1"}, "[11]": {"system": "Axin2, Panc04.03", "assay": "Axin2 qPCR assay (pathway inhibition)", "protocol": "as §1"}, "[12]": {"system": "Axin2, KP-1NL", "assay": "Axin2 qPCR assay (pathway inhibition)", "protocol": "as §1"}, "[13]": {"system": "Axin2, SU86.86", "assay": "Axin2 qPCR assay (pathway inhibition)", "protocol": "as §1"}, "[14]": {"system": "Axin2, PaTu-8988S", "assay": "Axin2 qPCR assay (pathway inhibition)", "protocol": "as §1"}, "[15]": {"system": "Axin2, KP3", "assay": "Axin2 qPCR assay (pathway inhibition)", "protocol": "as §1"}, "[16]": {"system": "Axin2, PANC-1", "assay": "Axin2 qPCR assay (pathway inhibition)", "protocol": "as §1"}, "[17]": {"system": "Axin2, PK45H", "assay": "Axin2 qPCR assay (pathway inhibition)", "protocol": "as §1"}, "[18]": {"system": "HPAFII cells", "assay": "cell colony formation assay (FIG. 1)", "protocol": "FIG. 1(a) is a photograph showing a HPAFII cell colony formation assay in the presence of LGK974 at two concentrations (300 nM and 1 μM). 1300 cells were seeded into media with indicated treatment and the media were replaced every 5 days until crystal violet staining at day 14. […] FIG. 1(b) is a photograph showing PK1 (having a functional RNF43 protein) and HPAFII (having a nonfunctional RNF43 protein) cell colony formation assays in the presence of 1 μM LGK974 alone or together with daily addition of 10% Wnt3a conditioned media (CM)."}, "[19]": {"system": "RNF43 mutant cells", "assay": "foci formation assay with recombinant Wnt3a", "settings": "1 μM of LGK974 together with recombinant Wnt3a", "text": "(§2) We next characterized Wnt-dependency in pancreatic cancer cell lines."}, "[20]": {"system": "RNF43 mRNA, YAPC cells", "assay": "quantitative RT-PCR gene expression analysis", "settings": "1 μM of LGK974", "protocol": "FIG. 4(a) is a bar graph showing that the depletion of β-catenin decreases mRNA level of AXIN2 and RNF43. Cells were treated with siRNA, and relative mRNA levels of indicated genes were analyzed by quantitative RT-PCR. […] YAPC cells were treated with 3 μM of IWP2 or 1 μM of LGK974, and subjected to gene expression analysis by quantitative RT-PCR.\nas §1\nConsistent with this observation, treatment of Porcupine inhibitor IWP2 or LGK974 increased the cell surface level of Frizzled and decreased the mRNA levels of AXIN2 and RNF43. See, FIG. 4(b). […]"}, "[21]": {"system": "AXIN2, pancreatic cancer cell lines", "assay": "AXIN2 expression across pancreatic cancer cell line panel", "settings": "22 of 29 cell lines", "protocol": "as §1"}, "[22]": {"system": "RNF43 mutant cell lines", "assay": "immunoblot and qPCR assays", "protocol": "as §1, §2\n(§3) For immunoblotting, total cell lysates were prepared by lysing cells using RIPA buffer (50 mM Tris-HCl, pH 7.4, 150 mM NaCl, 1% NP-40, 0.5% sodium deoxycholate, 0.1% SDS, 1 mM EDTA) supplemented with protease inhibitors and phosphatase inhibitors, followed by centrifugation at 14,000 rpm for 10 min at 4° C. For cytosolic β-catenin extraction, cell pellets were resuspended in hypotonic buffer (10 mM Tris-HCl, pH 7.5 and 10 mM KCl, supplemented with protease/phosphatase inhibitors) and lysed by three freeze-thaw cycles. Equal amount of proteins were resolved by SDS-PAGE, transferred to nitrocellulose membranes, and incubated with primary antibodies for overnight at 4° C. Secondary antibodies conjugated with either HRP or infrared dyes were used for signal visualization by ECL film or LI-COR Odyssey scanner, respectively."}, "[23]": {"system": "RNF43 wild-type cell lines", "assay": "immunoblot and qPCR assays", "protocol": "as §1, §2, §3"}, "[24]": {"system": "Axin2, YAPC", "assay": "Axin2 qPCR assay (pathway inhibition)", "protocol": "as §1\nConsistent with this observation, treatment of Porcupine inhibitor IWP2 or LGK974 increased the cell surface level of Frizzled and decreased the mRNA levels of AXIN2 and RNF43. See, FIG. 4(b). […] YAPC cells were treated with 3 μM of IWP-2 or 1 μM of LGK974, and subjected to flowcytometry analysis for membrane Frizzled expression."}}}
{"smiles": "Cc1cc(-c2ncc(CC(=O)Nc3ccc(-c4cnccn4)cn3)cc2C)ccn1", "note": "[LGK974, 2-[5-methyl-6-(2-methylpyridin-4-yl)pyridin-3-yl]-N-[5-(pyrazin-2-yl)pyridin-2-yl]acetamide]", "values": [{"measurement": "Pathway inhibition in Axin2 qPCR assay", "setting": "[1]", "result": "No"}, {"measurement": "Pathway inhibition in Axin2 qPCR assay", "setting": "[2]", "result": "No"}, {"measurement": "Pathway inhibition in Axin2 qPCR assay", "setting": "[3]", "result": "No"}, {"measurement": "Pathway inhibition in Axin2 qPCR assay", "setting": "[4]", "result": "Yes"}, {"measurement": "Pathway inhibition in Axin2 qPCR assay", "setting": "[5]", "result": "Yes"}, {"measurement": "Pathway inhibition in Axin2 qPCR assay", "setting": "[6]", "result": "Yes"}, {"measurement": "Pathway inhibition in Axin2 qPCR assay", "setting": "[7]", "result": "Yes"}, {"measurement": "Pathway inhibition in Axin2 qPCR assay", "setting": "[8]", "result": "Yes"}, {"measurement": "Pathway inhibition in Axin2 qPCR assay", "setting": "[9]", "result": "No"}, {"measurement": "Pathway inhibition in Axin2 qPCR assay", "setting": "[10]", "result": "Yes"}, {"measurement": "Pathway inhibition in Axin2 qPCR assay", "setting": "[11]", "result": "No"}, {"measurement": "Pathway inhibition in Axin2 qPCR assay", "setting": "[12]", "result": "Yes"}, {"measurement": "Pathway inhibition in Axin2 qPCR assay", "setting": "[13]", "result": "Yes"}, {"measurement": "Pathway inhibition in Axin2 qPCR assay", "setting": "[14]", "result": "Yes"}, {"measurement": "Pathway inhibition in Axin2 qPCR assay", "setting": "[15]", "result": "Yes"}, {"measurement": "Pathway inhibition in Axin2 qPCR assay", "setting": "[16]", "result": "Yes"}, {"measurement": "Pathway inhibition in Axin2 qPCR assay", "setting": "[17]", "result": "No"}, {"measurement": "colony formation", "setting": "[18]; HPAFII (RNF43 mutant), 1 μM LGK974 alone", "result": "inhibited"}, {"measurement": "colony formation", "setting": "[18]; HPAFII, 300 nM and 1 μM LGK974, crystal violet staining at day 14", "result": "inhibits colony formation"}, {"measurement": "colony formation, inhibition with exogenous Wnt3a", "setting": "[18]; HPAFII, 1 μM LGK974 with daily addition of 10% Wnt3a conditioned media", "result": "partially rescued"}, {"measurement": "growth inhibitory effect with exogenous Wnt3a", "setting": "[19]", "result": "rescued"}, {"measurement": "mRNA level of RNF43", "setting": "[20]", "result": "decreased"}, {"measurement": "share of pancreatic cancer cell lines with decreased expression of AXIN2", "setting": "[21]", "result": 76, "unit": "%"}, {"measurement": "cytosolic β-catenin", "setting": "[22]; RNF43 mutant cell lines", "result": "decreased"}, {"measurement": "expression of MYC", "setting": "[22]; RNF43 mutant cell lines", "result": "decreased"}, {"measurement": "expression of cyclin dependent kinase inhibitor p21", "setting": "[22]; RNF43 mutant cell lines", "result": "increased"}, {"measurement": "expression of β-catenin target gene AXIN2", "setting": "[22]; RNF43 mutant cell lines", "result": "decreased"}, {"measurement": "expression of differentiation marker MUC2, MUC5A/C", "setting": "[22]; RNF43 mutant cells", "result": "induced"}, {"measurement": "cytosolic β-catenin", "setting": "[23]", "result": "decreased"}, {"measurement": "expression of MYC", "setting": "[23]", "result": "not"}, {"measurement": "expression of cyclin dependent kinase inhibitor p21", "setting": "[23]", "result": "not"}, {"measurement": "expression of β-catenin target gene AXIN2", "setting": "[23]", "result": "decreased"}, {"measurement": "Pathway inhibition in Axin2 qPCR assay", "setting": "[24]; YAPC", "result": "Yes"}, {"measurement": "mRNA level of AXIN2", "setting": "[24]; YAPC cells, 1 μM of LGK974", "result": "decreased"}]}
